# Data: US20100267561A1, “HERBICIDAL PYRIDAZINONE DERIVATIVES” (priority 2007, published 2010)
# What was measured:
# Assay in all cases: Test B pre-/postemergence plant response
# Format in all cases: in vivo
# [1] = system: common ragweed (Ambrosia elation); details: for Ragweed plant response rating: 8 g ai/ha
# How it was run: (§1)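 Seeds were sown and sprayed preemergence, while plants at 2 to 18 cm (1- to 4-leaf stage) got postemergence sprays. Compounds were formulated in a non-phytotoxic solvent mixture with surfactant. After 13 to 15 days in a greenhouse, injury was rated visually against untreated controls, 0 (no effect) to 100 (complete control).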
# [2] = system: soybean (Glycine max); details: for Soybean plant response rating: 8 g ai/ha
# How it was run: as §1
# [3] = system: large crabgrass (Digitaria sanguinalis); details: for Crabgrass, Large plant response rating: 8 g ai/ha
# How it was run: as §1
# [4] = system: catchweed bedstraw (Galium aparine); details: Preemergence
# How it was run: as §1
# [5] = system: Russian thistle (Salsola iberica); details: Preemergence
# How it was run: as §1
# [6] = system: pigweed (Amaranthus retroflexus); details: for Pigweed plant response rating: 8 g ai/ha
# How it was run: as §1
# [7] = system: common (oilseed) sunflower (Helianthus annuus); details: Preemergence
# How it was run: as §1
# [8] = system: kochia (Kochia scoparia); details: for Kochia plant response rating: 8 g ai/ha
# How it was run: as §1
# [9] = system: woolly cupgrass (Eriochloa villosa); details: for Cupgrass, Woolly plant response rating: 8 g ai/ha
# How it was run: as §1
# [10] = system: cocklebur (Xanthium strumarium); details: for Cocklebur plant response rating: 8 g ai/ha
# How it was run: as §1
# [11] = system: downy bromegrass (Bromus tectorum); details: for Bromegrass, Downy plant response rating: 8 g ai/ha
# How it was run: as §1
# [12] = system: surinam grass (Brachiaria decumbens); details: for Surinam Grass plant response rating: 8 g ai/ha
# How it was run: as §1
# [13] = system: Italian ryegrass (Lolium multiflorum); details: for Ryegrass, Italian plant response rating: 8 g ai/ha
# How it was run: as §1
# [14] = system: goosegrass (Eleusine indica); details: for Goosegrass plant response rating: 8 g ai/ha
# How it was run: as §1
# [15] = Postemergence, 16 g ai/ha, scale 0 to 100
# [16] = Postemergence, 31 g ai/ha, scale 0 to 100, 0 no effect, 100 complete control
# [17] = Postemergence, 62 g ai/ha, scale 0 to 100, 0 no effect, 100 complete control
# [18] = Preemergence, 16 g ai/ha, scale 0 to 100 (0 no effect, 100 complete control)
# [19] = Preemergence, 31 g ai/ha, scale 0 to 100 (0 no effect, 100 complete control)
# [20] = Preemergence, 62 g ai/ha, scale 0 to 100
# [21] = Preemergence, 31 g ai/ha, 0 to 100 scale, 0 no effect, 100 complete control
# [22] = 16 g ai/ha, scale 0 to 100 (0 no effect, 100 complete control)
# [23] = 31 g ai/ha, scale 0 to 100 (0 no effect, 100 complete control)
smiles,measurement,setting,value
CCc1cc(-c2ccc(Cl)cc2)nn1-c1c(OC(=O)OC(C)C)cnn(C)c1=O [Compound 41],Ragweed plant response rating,"[1]; postemergence, 0-100 scale",0
same,"Plant response rating, Ragweed",[1]; [15],0
same,"Plant response rating, Ragweed",[1]; [16],0
same,"Plant response rating, Ragweed",[1]; [17],0
same,"Plant response rating, Ragweed",[1]; [18],0
same,"Plant response rating, Ragweed",[1]; [19],0
same,"Plant response rating, Ragweed",[1]; [20],0
same,Ragweed plant response rating,"[1]; Preemergence, scale 0 to 100",0
same,Soybean plant response rating,"[2]; postemergence, 0-100 scale",0
same,"Plant response rating, Soybean",[2]; [15],0
same,"Plant response rating, Soybean",[2]; [17],0
same,"Plant response rating, Soybean",[2]; [18],0
same,"Plant response rating, Soybean",[2]; [19],0
same,"Plant response rating, Soybean",[2]; [20],0
same,Soybean plant response rating,"[2]; Preemergence, scale 0 to 100",0
same,"Crabgrass, Large plant response rating","[3]; postemergence, 0-100 scale",70
same,"Plant response rating, Crabgrass, Large",[3]; [15],85
same,"Plant response rating, Crabgrass, Large",[3]; [16],100
same,"Plant response rating, Crabgrass, Large",[3]; [17],100
same,"Plant response rating, Crabgrass, Large",[3]; [18],0
same,"Plant response rating, Crabgrass, Large",[3]; [21],0
same,"Plant response rating, Crabgrass, Large",[3]; [20],20
same,"Crabgrass, Large plant response rating","[3]; Preemergence, scale 0 to 100",0
same,"Plant response rating, Galium",[4]; [22],0
same,"Plant response rating, Galium","[4]; 31 g ai/ha, 0 to 100 scale, 0 no effect, 100 complete control",50
same,"Plant response rating, Galium","[4]; 62 g ai/ha, scale 0 to 100",100
same,Galium plant response rating,"[4]; 8 g ai/ha, scale 0 to 100",0
same,"Plant response rating, Russian Thistle",[5]; [23],0
same,"Plant response rating, Russian Thistle","[5]; 62 g ai/ha, scale 0 to 100",0
same,Pigweed plant response rating,"[6]; postemergence, 0-100 scale",0
same,"Plant response rating, Pigweed",[6]; [15],0
same,"Plant response rating, Pigweed",[6]; [16],0
same,"Plant response rating, Pigweed",[6]; [17],0
same,"Plant response rating, Pigweed",[6]; [18],0
same,"Plant response rating, Pigweed",[6]; [19],0
same,"Plant response rating, Pigweed",[6]; [20],0
same,Pigweed plant response rating,"[6]; Preemergence, scale 0 to 100",0
same,"Plant response rating, Sunflower",[7]; [22],0
same,"Plant response rating, Sunflower",[7]; [23],0
same,"Plant response rating, Sunflower","[7]; 62 g ai/ha, scale 0 to 100",0
same,Sunflower plant response rating,"[7]; 8 g ai/ha, scale 0 to 100",0
same,Kochia plant response rating,"[8]; postemergence, 0-100 scale",0
same,"Plant response rating, Kochia",[8]; [15],0
same,"Plant response rating, Kochia",[8]; [16],0
same,"Plant response rating, Kochia",[8]; [17],0
same,"Plant response rating, Kochia",[8]; [18],0
same,"Plant response rating, Kochia",[8]; [21],0
same,"Plant response rating, Kochia",[8]; [20],0
same,Kochia plant response rating,"[8]; Preemergence, scale 0 to 100",0
same,"Cupgrass, Woolly plant response rating","[9]; postemergence, 0-100 scale",95
same,"Plant response rating, Cupgrass, Woolly",[9]; [15],100
same,"Plant response rating, Cupgrass, Woolly",[9]; [16],100
same,"Plant response rating, Cupgrass, Woolly",[9]; [17],100
same,"Plant response rating, Cupgrass, Woolly",[9]; [18],0
same,"Plant response rating, Cupgrass, Woolly",[9]; [21],0
same,"Plant response rating, Cupgrass, Woolly",[9]; [20],75
same,"Cupgrass, Woolly plant response rating","[9]; Preemergence, scale 0 to 100",0
same,Cocklebur plant response rating,"[10]; postemergence, 0-100 scale",0
same,"Plant response rating, Cocklebur",[10]; [15],0
same,"Plant response rating, Cocklebur",[10]; [16],0
same,"Plant response rating, Cocklebur",[10]; [17],0
same,"Plant response rating, Cocklebur",[10]; [18],0
same,"Plant response rating, Cocklebur",[10]; [21],0
same,"Plant response rating, Cocklebur",[10]; [20],0
same,Cocklebur plant response rating,"[10]; Preemergence, scale 0 to 100",0
same,"Bromegrass, Downy plant response rating","[11]; postemergence, 0-100 scale",30
same,"Plant response rating, Bromegrass, Downy",[11]; [15],50
same,"Plant response rating, Bromegrass, Downy",[11]; [16],60
same,"Plant response rating, Bromegrass, Downy",[11]; [17],85
same,"Plant response rating, Bromegrass, Downy",[11]; [18],70
same,"Plant response rating, Bromegrass, Downy",[11]; [21],75
same,"Plant response rating, Bromegrass, Downy",[11]; [20],80
same,"Bromegrass, Downy plant response rating","[11]; Preemergence, scale 0 to 100",70
same,Surinam Grass plant response rating,"[12]; postemergence, 0-100 scale",100
same,"Plant response rating, Surinam Grass",[12]; [15],100
same,"Plant response rating, Surinam Grass",[12]; [17],100
same,"Plant response rating, Surinam Grass",[12]; [18],40
same,"Plant response rating, Surinam Grass",[12]; [19],55
same,"Plant response rating, Surinam Grass","[12]; Preemergence, 62 g ai/ha, 0 to 100 scale, 0 no effect, 100 complete control",100
same,Surinam Grass plant response rating,"[12]; Preemergence, scale 0 to 100",0
same,"Ryegrass, Italian plant response rating","[13]; postemergence, 0-100 scale",90
same,"Plant response rating, Ryegrass, Italian",[13]; [15],98
same,"Plant response rating, Ryegrass, Italian",[13]; [16],100
same,"Plant response rating, Ryegrass, Italian",[13]; [17],100
same,"Plant response rating, Ryegrass, Italian",[13]; [18],85
same,"Plant response rating, Ryegrass, Italian",[13]; [19],100
same,"Plant response rating, Ryegrass, Italian",[13]; [20],100
same,"Ryegrass, Italian plant response rating","[13]; Preemergence, scale 0 to 100",85
same,Goosegrass plant response rating,"[14]; postemergence, 0-100 scale",80
same,"Plant response rating, Goosegrass",[14]; [15],80
same,"Plant response rating, Goosegrass",[14]; [16],85
same,"Plant response rating, Goosegrass",[14]; [17],98
same,"Plant response rating, Goosegrass",[14]; [18],0
same,"Plant response rating, Goosegrass",[14]; [21],0
same,"Plant response rating, Goosegrass",[14]; [20],0
same,Goosegrass plant response rating,"[14]; Preemergence, scale 0 to 100",0
